From patent US9023789B2, “Amylin analogs and pharmaceutical compositions thereof” (Novo Nordisk A/S, priority 2012, dated 2015)
Numbered stars: 1 amine (or outer) side, 2 acyl side, 3 side chain; on linkers, the order of the positions; unused ones are H or OH. Bridge positions count the residues as written; N and C are the ends. Side chains are listed from the residue outwards. Peptide text beside a SMILES is read from it. * marks the point of attachment. C20 diacid = O=C(O)CCCCCCCCCCCCCCCCCCC(=O)*; γGlu = O=C(O)[C@H](CCC(=O)[*:2])N[*:1]

Legend:
[1] = ASSAY (III) ThT fibrillation assay for physical stability; type: physicochemical
Outline: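 Physical stability scored by ThT fluorescence (444 nm excitation, 485 nm emission) tracked every 20 min during 37 °C incubation with 960 rpm shaking, ThT at 1 μM final. Values are replicate means with SD at chosen times; HPLC against pramlintide standard gives initial and post-assay soluble concentrations.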

[2] = target: T1, human amylin 3(a) receptor (human calcitonin receptor + RAMP-3) in BHK570 cells (Homo sapiens, UniProt O60896+P30988); test: ASSAY (II)a functional assay, human amylin receptor (CRE luciferase); type: cell-based; conditions: for EC50: human amylin receptor functional potency, assay (II), read-out: hAmylin-R funct. EC50
T1 construct: expressed in transfected cells
Outline: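 Read-out: CRE-driven luciferase luminescence, single photon counting, after 30 min at room temperature with LucLite. BHK cells expressed calcitonin receptor alone or with RAMP-3 (amylin 3(a)). Cells were stimulated 3 h at 37° C in DMEM, 10% FBS, 10 mM Hepes, pH 7.4.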

[3] = hCTR funct. EC50 / hAmylin-R funct. EC50
[4] = hCTR funct. EC50 divided by hAmylin-R funct. EC50
[5] = hCTR funct. EC50 over hAmylin-R funct. EC50
[6] = human functional selectivity: hCTR funct. EC50 / hAmylin-R funct. EC50

T1 sequence (O60896 24-148): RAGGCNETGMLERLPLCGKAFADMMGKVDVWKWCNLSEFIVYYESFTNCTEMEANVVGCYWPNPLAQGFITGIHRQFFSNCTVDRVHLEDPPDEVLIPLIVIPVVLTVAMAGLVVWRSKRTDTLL
T1 sequence (P30988 25-474): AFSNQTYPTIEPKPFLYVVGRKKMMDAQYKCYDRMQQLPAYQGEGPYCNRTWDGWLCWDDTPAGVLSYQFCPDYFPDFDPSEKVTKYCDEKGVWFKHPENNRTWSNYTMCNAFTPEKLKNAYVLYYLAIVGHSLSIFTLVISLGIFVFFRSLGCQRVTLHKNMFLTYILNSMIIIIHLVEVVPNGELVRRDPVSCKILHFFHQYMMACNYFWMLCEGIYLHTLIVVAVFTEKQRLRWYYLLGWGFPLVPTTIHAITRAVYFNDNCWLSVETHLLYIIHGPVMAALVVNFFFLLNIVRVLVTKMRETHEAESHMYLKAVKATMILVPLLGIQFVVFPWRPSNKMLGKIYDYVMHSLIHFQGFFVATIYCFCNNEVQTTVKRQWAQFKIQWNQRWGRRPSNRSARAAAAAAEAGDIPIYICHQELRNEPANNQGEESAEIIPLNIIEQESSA

Row | ThT pH 4.0 lag time (h) [1] [h] | Ratio hCT/hAmylin funct. [2, 3] | Ratio hCT/hAmylin funct. [2, 4] | Ratio hCT/hAmylin funct. [2, 5] | EC50 [2] [pM] | Ratio hCT/hAmylin funct. [2, 6] | Compound
1 | 45 | 3.8 | 3.8 | 3.8 |  | 3.8 | CC[C@H](C)[C@H](NC(=O)[C@H](C)NC(=O)CNC(=O)[C@H](Cc1ccccc1)NC(=O)[C@H](CC(N)=O)NC(=O)[C@@H]1CCCN1C(=O)[C@H](CO)NC(=O)[C@H](CO)NC(=O)[C@H](Cc1c[nH]cn1)NC(=O)[C@H](CCCNC(=N)N)NC(=O)[C@H](CC(C)C)NC(=O)[C@H](Cc1ccccc1)NC(=O)[C@H](CCC(=O)O)NC(=O)[C@H](C)NC(=O)[C@H](CC(C)C)NC(=O)[C@H](CCCNC(=N)N)NC(=O)[C@H](CCC(N)=O)NC(=O)[C@@H](NC(=O)[C@H](C)NC(=O)[C@@H]1CSSC[C@H](NC(=O)[C@H](CCCCN)NC(=O)CC[C@H](NC(=O)CCCCCCCCCCCCCCCCCCC(=O)O)C(=O)O)C(=O)N[C@@H](CC(N)=O)C(=O)N[C@@H]([C@@H](C)O)C(=O)N[C@@H](C)C(=O)N[C@@H]([C@@H](C)O)C(=O)N1)[C@@H](C)O)C(=O)N1CCC[C@H]1C(=O)N[C@@H](CO)C(=O)N[C@@H](CO)C(=O)N[C@H](C(=O)N[C@@H](CC(N)=O)C(=O)N[C@H](C(=O)NCC(=O)N[C@@H](CO)C(=O)N[C@@H](CCC(=O)O)C(=O)N[C@H](C(=O)N[C@@H](Cc1ccc(O)cc1)C(N)=O)[C@@H](C)O)C(C)C)[C@@H](C)O [Example 22] ({C20 diacid-γGlu}-KCNTATCATQRLAEFLRHSSPNFGAIPSSTNVGSETY-NH2; disulfide 2-7)
2 | 45 |  | 8.8 | 8.8 | 268 | 8.8 | CC[C@H](C)[C@H](NC(=O)[C@H](C)NC(=O)CNC(=O)[C@H](Cc1ccccc1)NC(=O)[C@H](CC(N)=O)NC(=O)[C@@H]1CCCN1C(=O)[C@H](CO)NC(=O)[C@H](CO)NC(=O)[C@H](Cc1c[nH]cn1)NC(=O)[C@H](CCCNC(=N)N)NC(=O)[C@H](CC(C)C)NC(=O)[C@H](Cc1ccccc1)NC(=O)[C@H](CCC(=O)O)NC(=O)[C@H](C)NC(=O)[C@H](CC(C)C)NC(=O)[C@H](CCCNC(=N)N)NC(=O)[C@H](CCC(N)=O)NC(=O)[C@@H](NC(=O)[C@H](C)NC(=O)[C@@H]1CSSC[C@H](NC(=O)[C@H](CCCCN)NC(=O)CC[C@H](NC(=O)CCCCCCCCCCCCCCCCCCC(=O)O)C(=O)O)C(=O)N[C@@H](CC(N)=O)C(=O)N[C@@H]([C@@H](C)O)C(=O)N[C@@H](C)C(=O)N[C@@H]([C@@H](C)O)C(=O)N1)[C@@H](C)O)C(=O)N1CCC[C@H]1C(=O)N[C@@H](CO)C(=O)N[C@@H](CO)C(=O)N[C@H](C(=O)N[C@@H](CC(N)=O)C(=O)N[C@H](C(=O)NCC(=O)N[C@@H](Cc1c[nH]cn1)C(=O)N[C@@H](CC(N)=O)C(=O)N[C@H](C(=O)N[C@@H](Cc1ccc(O)cc1)C(N)=O)[C@@H](C)O)C(C)C)[C@@H](C)O [Example 17] ({C20 diacid-γGlu}-KCNTATCATQRLAEFLRHSSPNFGAIPSSTNVGHNTY-NH2; disulfide 2-7 (inferred))

Second part, the molecule before the results:

Row | Compound | ThT pH 4.0 lag time (h) [1] [h] | Ratio hCT/hAmylin funct. [2, 3] | Ratio hCT/hAmylin funct. [2, 4] | Ratio hCT/hAmylin funct. [2, 5] | EC50 [2] [pM] | Ratio hCT/hAmylin funct. [2, 6]
3 | CC[C@H](C)[C@H](NC(=O)[C@H](C)NC(=O)CNC(=O)[C@H](Cc1ccccc1)NC(=O)[C@H](CC(N)=O)NC(=O)[C@@H]1CCCN1C(=O)[C@H](CO)NC(=O)[C@H](CO)NC(=O)[C@H](Cc1c[nH]cn1)NC(=O)[C@H](CCCNC(=N)N)NC(=O)[C@H](CC(C)C)NC(=O)[C@H](Cc1ccccc1)NC(=O)[C@H](C)NC(=O)[C@H](C)NC(=O)[C@H](CC(C)C)NC(=O)[C@H](CCCNC(=N)N)NC(=O)[C@H](CCC(N)=O)NC(=O)[C@@H](NC(=O)[C@H](C)NC(=O)[C@@H]1CSSC[C@H](NC(=O)[C@H](CCCNC(=N)N)NC(=O)CNC(=O)CC[C@H](NC(=O)CCCCCCCCCCCCCCCCCCC(=O)O)C(=O)O)C(=O)N[C@@H](CC(N)=O)C(=O)N[C@@H]([C@@H](C)O)C(=O)N[C@@H](C)C(=O)N[C@@H]([C@@H](C)O)C(=O)N1)[C@@H](C)O)C(=O)N1CCC[C@H]1C(=O)N[C@@H](CO)C(=O)N[C@@H](CO)C(=O)N[C@H](C(=O)N[C@@H](CC(N)=O)C(=O)N[C@H](C(=O)NCC(=O)N[C@@H](Cc1c[nH]cn1)C(=O)N[C@@H](CC(N)=O)C(=O)N[C@H](C(=O)N[C@@H](Cc1ccc(O)cc1)C(N)=O)[C@@H](C)O)C(C)C)[C@@H](C)O [Example 101] ({C20 diacid-γGlu}-GRCNTATCATQRLAAFLRHSSPNFGAIPSSTNVGHNTY-NH2; disulfide 3-8) | 45 | 4.9 | 4.9 | 4.9 | 109 | 4.9
4 | CC[C@H](C)[C@H](NC(=O)[C@H](C)NC(=O)CNC(=O)[C@H](Cc1ccccc1)NC(=O)[C@H](CC(N)=O)NC(=O)[C@@H]1CCCN1C(=O)[C@H](CO)NC(=O)[C@H](CO)NC(=O)[C@H](Cc1c[nH]cn1)NC(=O)[C@H](CCCNC(=N)N)NC(=O)[C@H](CC(C)C)NC(=O)[C@H](Cc1ccccc1)NC(=O)[C@H](CC(N)=O)NC(=O)[C@H](C)NC(=O)[C@H](CC(C)C)NC(=O)[C@H](CCCNC(=N)N)NC(=O)[C@H](CCC(N)=O)NC(=O)[C@@H](NC(=O)[C@H](C)NC(=O)[C@@H]1CSSC[C@H](NC(=O)[C@@H](N)CCCCNC(=O)CC[C@H](NC(=O)CC[C@H](NC(=O)CCCCCCCCCCCCCCCCCCC(=O)O)C(=O)O)C(=O)O)C(=O)N[C@@H](CC(N)=O)C(=O)N[C@@H]([C@@H](C)O)C(=O)N[C@@H](C)C(=O)N[C@@H]([C@@H](C)O)C(=O)N1)[C@@H](C)O)C(=O)N1CCC[C@H]1C(=O)N[C@@H](CO)C(=O)N[C@@H](CO)C(=O)N[C@H](C(=O)N1CCC[C@H]1C(=O)N[C@H](C(=O)NCC(=O)N1CCC[C@H]1C(=O)N[C@@H](CCCNC(=N)N)C(=O)N[C@H](C(=O)N[C@@H](Cc1ccc(O)cc1)C(N)=O)[C@@H](C)O)C(C)C)[C@@H](C)O [Example 119] (H-K([γGlu-γGlu-C20 diacid])CNTATCATQRLANFLRHSSPNFGAIPSSTPVGPRTY-NH2; disulfide 2-7) | 10 |  | 26.0 | 26.0 | 333 | 26.0
5 | CC[C@H](C)[C@H](NC(=O)[C@H](C)NC(=O)CNC(=O)[C@H](Cc1ccccc1)NC(=O)[C@H](CC(N)=O)NC(=O)[C@@H]1CCCN1C(=O)[C@H](CO)NC(=O)[C@H](CO)NC(=O)[C@H](Cc1c[nH]cn1)NC(=O)[C@H](CCCNC(=N)N)NC(=O)[C@H](CC(C)C)NC(=O)[C@H](Cc1ccccc1)NC(=O)[C@H](CCC(=O)O)NC(=O)[C@H](C)NC(=O)[C@H](CC(C)C)NC(=O)[C@H](CCCNC(=N)N)NC(=O)[C@H](CCC(N)=O)NC(=O)[C@@H](NC(=O)[C@H](C)NC(=O)[C@@H]1CSSC[C@H](NC(=O)[C@H](CCCCN)NC(=O)CC[C@H](NC(=O)CCCCCCCCCCCCCCCCCCC(=O)O)C(=O)O)C(=O)N[C@@H](CC(N)=O)C(=O)N[C@@H]([C@@H](C)O)C(=O)N[C@@H](C)C(=O)N[C@@H]([C@@H](C)O)C(=O)N1)[C@@H](C)O)C(=O)N1CCC[C@H]1C(=O)N[C@@H](CO)C(=O)N[C@@H](CO)C(=O)N[C@H](C(=O)N[C@@H](CC(N)=O)C(=O)N[C@H](C(=O)NCC(=O)N[C@@H](CO)C(=O)N[C@@H](CCCNC(=N)N)C(=O)N[C@H](C(=O)N[C@@H](Cc1ccc(O)cc1)C(N)=O)[C@@H](C)O)C(C)C)[C@@H](C)O [Example 16] ({C20 diacid-γGlu}-KCNTATCATQRLAEFLRHSSPNFGAIPSSTNVGSRTY-NH2; disulfide 2-7) | 45 |  | 6.1 | 6.1 |  | 6.1
